Km data for one molecule are collected here from publication PMC4574351, “Tubulin cofactors and Arl2 are cage-like chaperones that regulate the soluble αβ-tubulin pool for microtubule dynamics” (eLife, 2015).

Common to all, as to test: malachite green phosphate release, Michaelis-Menten fit
What all share (assay type): biochemical

For assay [1], the target named is T1, TBC-DEG:αβ-tubulin:TBCC ternary complex (Saccharomyces cerevisiae, UniProt P39110).
T1 construct: gene CIN4; recombinant yeast TBC-DEG and full-length TBCC with equimolar double-cycled porcine brain tubulin dimer; tubulin may contribute to GTP turnover; with Protein CIN1; Protein PAC2; Tubulin-folding cofactor C; Tubulin alpha chain (Sus scrofa brain, isotype mixture); Tubulin beta chain (Sus scrofa brain, isotype mixture)
To be noted: 1 μM each TBC-DEG, buffer and temperature same, read-out: Km (GTP). The text has this: (§1) malachite green phosphate release, Michaelis-Menten fit on TBC-DEG:αβ-tubulin:TBCC ternary complex

Assay [2] deals with T2, TBC-DEG:αβ-tubulin:TBCC ternary complex (Saccharomyces cerevisiae, UniProt P39110, Q73L).
T2 construct: gene CIN4; recombinant yeast TBC-DEG and full-length TBCC with equimolar double-cycled porcine brain tubulin dimer; tubulin may contribute to GTP turnover; with Protein CIN1; Protein PAC2; Tubulin-folding cofactor C; Tubulin alpha chain (Sus scrofa brain, isotype mixture); Tubulin beta chain (Sus scrofa brain, isotype mixture)
Particulars: 1 μM each TBC-DEG-Q73L, buffer and temperature same, text prints 387 μM, residual turnover ascribed to tubulin, read-out: Km (GTP).
Text: as §1

A further assay addresses T3, TBC-DEG (TBCD-TBCE-Arl2) (Saccharomyces cerevisiae, UniProt P39110).
T3 construct: gene CIN4; full-length subunits co-expressed in E. coli (polycistronic), 6xHis N-terminal tag; 1:1:1 heterotrimer, ~205 kDa; with Protein CIN1; Protein PAC2
T3 sequence (P39110 1-191): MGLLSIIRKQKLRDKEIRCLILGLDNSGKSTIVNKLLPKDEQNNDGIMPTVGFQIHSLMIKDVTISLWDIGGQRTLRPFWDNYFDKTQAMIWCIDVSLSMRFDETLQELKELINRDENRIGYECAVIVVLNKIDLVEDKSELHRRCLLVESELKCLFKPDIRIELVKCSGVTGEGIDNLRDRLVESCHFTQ
T3 sequence (P40987 1-1014 partner): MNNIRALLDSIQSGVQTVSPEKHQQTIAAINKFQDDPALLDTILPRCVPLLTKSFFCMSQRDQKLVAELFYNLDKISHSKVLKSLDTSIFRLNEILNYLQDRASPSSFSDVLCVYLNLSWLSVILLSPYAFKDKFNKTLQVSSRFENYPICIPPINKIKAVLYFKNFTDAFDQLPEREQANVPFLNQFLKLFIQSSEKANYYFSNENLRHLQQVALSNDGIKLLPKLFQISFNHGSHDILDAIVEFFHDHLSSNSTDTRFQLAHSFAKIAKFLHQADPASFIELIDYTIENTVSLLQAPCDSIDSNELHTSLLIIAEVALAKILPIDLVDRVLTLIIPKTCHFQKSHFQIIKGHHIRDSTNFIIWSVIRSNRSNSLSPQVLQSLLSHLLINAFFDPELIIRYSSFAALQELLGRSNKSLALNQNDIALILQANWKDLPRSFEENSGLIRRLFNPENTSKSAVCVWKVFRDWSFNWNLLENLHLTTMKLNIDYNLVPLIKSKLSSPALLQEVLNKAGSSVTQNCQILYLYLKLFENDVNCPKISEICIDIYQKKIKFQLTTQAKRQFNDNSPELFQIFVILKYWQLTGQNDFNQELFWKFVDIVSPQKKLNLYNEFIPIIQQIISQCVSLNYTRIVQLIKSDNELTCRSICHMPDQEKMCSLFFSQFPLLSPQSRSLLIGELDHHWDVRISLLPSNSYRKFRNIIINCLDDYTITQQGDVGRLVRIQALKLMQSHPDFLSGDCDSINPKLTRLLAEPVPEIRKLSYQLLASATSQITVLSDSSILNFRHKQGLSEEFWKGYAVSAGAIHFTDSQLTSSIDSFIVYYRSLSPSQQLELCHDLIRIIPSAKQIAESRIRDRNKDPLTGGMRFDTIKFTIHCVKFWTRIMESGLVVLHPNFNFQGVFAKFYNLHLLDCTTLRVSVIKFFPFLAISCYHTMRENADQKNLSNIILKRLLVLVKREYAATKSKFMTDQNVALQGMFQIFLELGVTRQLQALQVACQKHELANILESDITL
T3 sequence (P39937 1-518 partner): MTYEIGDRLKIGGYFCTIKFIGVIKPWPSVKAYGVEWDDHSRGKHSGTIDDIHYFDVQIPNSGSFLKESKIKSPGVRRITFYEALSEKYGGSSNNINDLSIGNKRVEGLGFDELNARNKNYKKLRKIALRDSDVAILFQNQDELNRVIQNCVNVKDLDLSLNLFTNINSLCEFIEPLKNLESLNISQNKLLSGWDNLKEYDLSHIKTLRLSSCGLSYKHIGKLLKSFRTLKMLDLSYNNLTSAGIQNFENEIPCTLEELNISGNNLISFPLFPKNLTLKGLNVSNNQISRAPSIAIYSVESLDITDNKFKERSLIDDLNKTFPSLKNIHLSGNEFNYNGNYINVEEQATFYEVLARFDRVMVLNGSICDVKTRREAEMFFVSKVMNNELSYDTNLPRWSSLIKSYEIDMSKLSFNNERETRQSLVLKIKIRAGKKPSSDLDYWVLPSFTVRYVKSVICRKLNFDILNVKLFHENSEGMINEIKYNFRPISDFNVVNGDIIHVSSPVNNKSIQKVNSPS
Particulars: 1 μM TBC-DEG alone; 0-800 μM GTP; 50 mM HEPES, 100 mM KCl; 30 °C, 90 min. The text has this: malachite green phosphate release, Michaelis-Menten fit on TBC-DEG (TBCD-TBCE-Arl2)

For another assay, the target named is T4, TBC-DEG:αβ-tubulin (Saccharomyces cerevisiae, UniProt P39110).
T4 construct: gene CIN4; recombinant yeast TBC-DEG with equimolar double-cycled porcine brain tubulin dimer; tubulin may contribute to GTP turnover; with Protein CIN1; Protein PAC2; Tubulin alpha chain (Sus scrofa brain, isotype mixture); Tubulin beta chain (Sus scrofa brain, isotype mixture)
Particulars: 1 μM TBC-DEG, 1 μM αβ-tubulin; buffer and temperature same; GTPase site may be Arl2 or tubulin; read-out: Km (GTP). The source says:
malachite green phosphate release, Michaelis-Menten fit on TBC-DEG:αβ-tubulin

For assay [3], the target named is T5, TBC-DEG:αβ-tubulin:TBCC-Cterm (TBCC-C) (Saccharomyces cerevisiae, UniProt P39110).
T5 construct: gene CIN4; as ternary complex but TBCC beta-helix domain only (residues 100-267, spectrin domain removed); with Protein CIN1; Protein PAC2; Tubulin-folding cofactor C; Tubulin alpha chain (Sus scrofa brain, isotype mixture); Tubulin beta chain (Sus scrofa brain, isotype mixture)
To be noted: 1 μM each TBC-DEG, buffer and temperature same, read-out: Km (GTP). The source says:
malachite green phosphate release, Michaelis-Menten fit on TBC-DEG:αβ-tubulin:TBCC-Cterm (TBCC-C)

Another assay concerns the target T6, TBC-DEG:TBCC (Saccharomyces cerevisiae, UniProt P39110).
T6 construct: gene CIN4; TBC-DEG mixed with equimolar full-length TBCC (GAP), all recombinant from E. coli; with Protein CIN1; Protein PAC2; Tubulin-folding cofactor C
Particulars: 1 μM TBC-DEG, 1 μM TBCC; buffer and temperature same; read-out: Km (GTP). The source says: malachite green phosphate release, Michaelis-Menten fit on TBC-DEG:TBCC

Where two headings read alike, the source gives them in different places.

T2 sequence (P39110 whole entry Q73L, one chain of several): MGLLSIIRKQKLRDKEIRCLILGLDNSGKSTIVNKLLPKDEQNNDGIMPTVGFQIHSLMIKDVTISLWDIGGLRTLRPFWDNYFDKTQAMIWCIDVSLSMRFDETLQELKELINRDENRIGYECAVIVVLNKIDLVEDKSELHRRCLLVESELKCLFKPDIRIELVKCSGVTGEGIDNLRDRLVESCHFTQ
T2 sequence (P46670 whole entry partner, one chain of several): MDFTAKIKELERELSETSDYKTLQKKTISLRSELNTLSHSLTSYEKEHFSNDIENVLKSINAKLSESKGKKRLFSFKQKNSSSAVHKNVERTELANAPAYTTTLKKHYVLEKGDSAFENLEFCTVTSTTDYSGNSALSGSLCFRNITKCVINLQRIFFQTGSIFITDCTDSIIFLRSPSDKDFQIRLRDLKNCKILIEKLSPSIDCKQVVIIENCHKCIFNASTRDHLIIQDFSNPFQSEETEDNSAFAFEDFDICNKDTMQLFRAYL
T2 sequence (P02550 whole entry partner, one chain of several): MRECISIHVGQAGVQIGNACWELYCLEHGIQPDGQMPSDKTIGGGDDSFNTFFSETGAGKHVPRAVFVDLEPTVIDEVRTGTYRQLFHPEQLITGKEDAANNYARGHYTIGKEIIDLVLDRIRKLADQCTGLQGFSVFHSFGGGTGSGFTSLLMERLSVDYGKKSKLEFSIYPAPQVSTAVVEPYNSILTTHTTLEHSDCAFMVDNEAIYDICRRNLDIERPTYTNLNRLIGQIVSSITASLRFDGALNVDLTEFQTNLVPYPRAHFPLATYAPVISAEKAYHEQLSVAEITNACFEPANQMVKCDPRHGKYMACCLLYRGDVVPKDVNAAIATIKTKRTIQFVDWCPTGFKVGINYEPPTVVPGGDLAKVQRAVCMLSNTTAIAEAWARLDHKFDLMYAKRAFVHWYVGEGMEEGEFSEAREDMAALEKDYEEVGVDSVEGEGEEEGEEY
T2 sequence (P02554 whole entry partner, one chain of several): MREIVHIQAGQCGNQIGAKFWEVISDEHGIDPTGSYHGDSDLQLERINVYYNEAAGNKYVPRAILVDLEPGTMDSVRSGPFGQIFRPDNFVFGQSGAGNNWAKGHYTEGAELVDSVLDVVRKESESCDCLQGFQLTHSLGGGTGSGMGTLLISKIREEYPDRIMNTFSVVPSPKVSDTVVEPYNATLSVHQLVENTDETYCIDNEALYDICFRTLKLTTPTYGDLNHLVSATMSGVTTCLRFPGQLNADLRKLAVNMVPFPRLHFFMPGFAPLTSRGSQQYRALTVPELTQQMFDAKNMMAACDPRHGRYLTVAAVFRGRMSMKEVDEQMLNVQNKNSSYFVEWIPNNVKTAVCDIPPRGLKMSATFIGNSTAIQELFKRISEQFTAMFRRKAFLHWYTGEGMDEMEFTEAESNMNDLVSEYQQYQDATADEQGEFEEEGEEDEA
T5 sequence (P46670 100-267 partner, one chain of several): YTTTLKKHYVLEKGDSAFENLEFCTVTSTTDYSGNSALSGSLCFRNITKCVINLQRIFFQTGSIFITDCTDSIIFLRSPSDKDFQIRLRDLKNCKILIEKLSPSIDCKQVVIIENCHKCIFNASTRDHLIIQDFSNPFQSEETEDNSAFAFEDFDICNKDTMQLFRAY
T5 sequence (P02550 whole entry partner, one chain of several, the tested form may be a part): as the sequence (P02550 whole entry partner, one chain of several) above
T5 sequence (P02554 whole entry partner, one chain of several, the tested form may be a part): as the sequence (P02554 whole entry partner, one chain of several) above
T4 sequence (P02550 whole entry partner, one chain of several): as the sequence (P02550 whole entry partner, one chain of several) above
T4 sequence (P02554 whole entry partner, one chain of several): as the sequence (P02554 whole entry partner, one chain of several) above
T6 sequence (P46670 whole entry partner, one chain of several): as the sequence (P46670 whole entry partner, one chain of several) above

For the molecule `Nc1nc2c(ncn2[C@@H]2O[C@H](COP(=O)(O)OP(=O)(O)OP(=O)(O)O)[C@@H](O)[C@H]2O)c(=O)[nH]1` [GTP], the Km in assay [1] (TBCC-R186A, arginine finger mutant) turned out to be 40 ± 10 µM; in assay [1] (TBCC-Δ233-245, αβ-tubulin), 35 ± 8 µM; in assay [1] (Arl2 with minor tubulin contribution), 99 ± 10 µM; in assay [2], 371 ± 20 µM; at TBC-DEG (TBCD-TBCE-Arl2), 400 ± 30 µM; at TBC-DEG:αβ-tubulin it was 69 ± 12 µM. Moreover, the Km in assay [3] was found to be 56 ± 7 µM; on TBC-DEG:TBCC, 94 ± 10 µM.
